Here are results for 29 compounds from US10723723B2, “Substituted bicycle heterocyclic derivatives useful as ROMK channel inhibitors” (BRISTOL-MYERS SQUIBB COMPANY, priority 2016, dated 2020).

Chain of hROMK (human Kir1.1) (P48048 whole entry): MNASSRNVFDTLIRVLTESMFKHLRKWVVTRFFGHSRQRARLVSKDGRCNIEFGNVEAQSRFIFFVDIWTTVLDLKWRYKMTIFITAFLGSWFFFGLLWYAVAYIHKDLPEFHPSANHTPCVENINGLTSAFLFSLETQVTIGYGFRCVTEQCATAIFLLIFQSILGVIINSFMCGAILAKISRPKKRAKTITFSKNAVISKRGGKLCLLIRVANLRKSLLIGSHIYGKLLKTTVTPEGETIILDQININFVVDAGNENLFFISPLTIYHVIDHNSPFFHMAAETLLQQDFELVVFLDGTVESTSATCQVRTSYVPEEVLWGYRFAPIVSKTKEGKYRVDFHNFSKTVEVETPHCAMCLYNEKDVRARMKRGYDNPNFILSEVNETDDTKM

The experiment concerns the target hROMK (human Kir1.1) (Homo sapiens (Human), UniProt P48048). Briefly: Thallium Flux Assay (FluxOR, CHO T-Rex hROMK stable cell line). The format is cell-based. To be noted: CHO T-Rex hROMK cells, 10-point concentration response curve; read-out: Human ROMK TH Flux IC50.
Protocol: Solutions and reagents: Thallium flux assay was performed using FluxOR kit (F10017, Life Technologies). Loading buffer, assay buffer and stimulus buffer were prepared using kit components.
To prepare 10 ml of loading buffer: 10 μl of FluxOR dye (reconstituted in DMSO) was first added to 100 μl of powerload concentrate and this mix along with 100 μl of Probenicid (100×) was then added to 9.79 ml of HBSS. […] Stimulus buffer was composed of 15 mM Tl2SO4, 0.75 mM K2SO4 in FluxOR chloride free buffer (diluted to 1× using deionized water). The final concentration of Tl2SO4 and K2SO4 in the assay plate was 3 mM and 0.15 mM, respectively.
Plating and induction of cells: The CHO T-Rex hROMK (human Kir1.1) stable cell line was maintained in Ham's F12 media supplemented with 10% FBS, 1% Penicillin-Streptomycin, 500 μg/ml Zeocin and 10 μg/ml Blasticidin at 37° C. in a 5% CO2 incubator. […] The cell suspension was centrifuged at 1200 rpm for 5 min. After discarding the supernatant, the cells were resuspended in fresh growth media and cell concentration was determined using a hemocytometer. […] The assay plate was kept at 37° C. in a 5% CO2 incubator.
Assay protocol: On the day of experiment, media was removed and loading buffer was added (30 μl/well) to the assay plate. The cells were incubated in the loading buffer for 30 minutes at 37° C. The loading buffer was then replaced by assay buffer (30 μl/well) followed by addition of test compounds or controls. […] Each well was read for 90 sec at 2 sec interval and the stimulus buffer was added after 20 seconds of baseline recording. The final DMSO concentration was either 0.5 or 1% in the assay plate. Positive and negative controls were defined by addition of DMSO or 3 μM of a standard ROMK inhibitor, respectively, to the wells instead of a test compound.
A 10-point concentration response curve was used to estimate the IC50 value of test compounds.
For the compound `Cc1c(C(O)CN(C)Cc2ccc(-n3ccc4c(C#N)cccc43)nc2)ccc2c1COC2=O` (single isomer, unassigned) [Example 25-II, 1-(5-(((2-hydroxy-2-(4-methyl-1-oxo-1,3-dihydroisobenzofuran-5-yl)ethyl)(methyl)amino)methyl)pyridin-2-yl)-1H-indole-4-carbonitrile], the IC50 stood at 520 nM.
`Cc1cn(-c2ncc(CNC[C@H](O)c3ccc4c(c3C)COC4=O)cn2)c(C2CC2)n1` [Example 153, (R)-5-(2-(((2-(2-cyclopropyl-4-methyl-1H-imidazol-1-yl)pyrimidin-5-yl)methyl)amino)-1-hydroxyethyl)-4-methylisobenzofuran-1(3H)-one]: the IC50 worked out at 520 nM.
In the case of `Cc1c([C@@H](O)CNC(C)(C)c2cnn(-c3ccc4oc(=O)n(C)c4c3)c2)ccc2c1COC2=O` [Example 37, (R)-5-(4-(2-((2-hydroxy-2-(4-methyl-1-oxo-1,3-dihydroisobenzofuran-5-yl)ethyl)amino)propan-2-yl)-1H-pyrazol-1-yl)-3-methylbenzo[d]oxazol-2(3H)-one], the concentration for half-maximal inhibition (IC50) was 930 nM.
Take `Cc1cc(-n2cc(CNC[C@H](O)c3ccc4c(c3C)COC4=O)cn2)cc(C)n1` [Example 164, (R)-5-(2-(((1-(2,6-dimethylpyridin-4-yl)-1H-pyrazol-4-yl)methyl)amino)-1-hydroxyethyl)-4-methylisobenzofuran-1(3H)-one]: the IC50 worked out at 280 nM.
Under `Cc1c(C(O)CN(C)Cc2ccc(-n3ccc4cc(C#N)ccc43)cc2)ccc2c1COC2=O` (single isomer, unassigned) [Example 30-II, 1-(4-(((2-hydroxy-2-(4-methyl-1-oxo-1,3-dihydroisobenzofuran-5-yl)ethyl)(methyl)amino)methyl)phenyl)-1H-indole-5-carbonitrile] stands 1200 nM; under `Cc1c(C(O)CN(C)Cc2ccc(-n3ccc4c(C#N)cccc43)nc2)ccc2c1COC2=O` (single isomer, unassigned) [Example 25-I, 1-(5-(((2-hydroxy-2-(4-methyl-1-oxo-1,3-dihydroisobenzofuran-5-yl)ethyl)(methyl)amino)methyl)pyridin-2-yl)-1H-indole-4-carbonitrile], 240 nM.
Turning to `Cc1c([C@@H](O)CNCc2cnn(-c3ccnc4c3ccn4C)c2)ccc2c1COC2=O` [Example 166, (R)-5-(1-hydroxy-2-(((1-(1-methyl-1H-pyrrolo[2,3-b]pyridin-4-yl)-1H-pyrazol-4-yl)methyl)amino)ethyl)-4-methylisobenzofuran-1(3H)-one], the IC50 came to 1300 nM.
Under `CN(Cc1ccc(-c2ccc(C#N)c(F)c2)nc1)CC(O)c1ccc2oc(=O)n(C)c2c1` (single isomer, unassigned) [Example 24-I, 2-fluoro-4-(5-(((2-hydroxy-2-(3-methyl-2-oxo-2,3-dihydrobenzo[d]oxazol-5-yl)ethyl)(methyl)amino)methyl)pyridin-2-yl)benzonitrile] stands 2400 nM.
Turning to `Cc1c(C(CO)N(C)Cc2cnc(-n3ncc4c(C#N)cccc43)nc2)ccc2c1COC2=O` (centres unmarked) [Example 2-I], the IC50 amounted to 1900 nM.
Under `Cc1c(C(O)CN(C)Cc2ccc(-n3ccc4c(C#N)cccc43)cc2)ccc2c1COC2=O` (single isomer, unassigned) [Example 28-II, 1-(4-(((2-hydroxy-2-(4-methyl-1-oxo-1,3-dihydroisobenzofuran-5-yl)ethyl)(methyl)amino)methyl)phenyl)-1H-indole-4-carbonitrile] stands 390 nM; under `Cc1cc(-c2ccc(CN(C)CC(O)c3ccc4c(c3C)COC4=O)cc2)ncc1C#N` (single isomer, unassigned) [Example 31-II, 6-(4-(((2-hydroxy-2-(4-methyl-1-oxo-1,3-dihydroisobenzofuran-5-yl)ethyl)(methyl)amino)methyl)phenyl)-4-methylnicotinonitrile], 370 nM; under `Cc1cc(-n2cc(CNC[C@@H](c3ccc4c(c3C)COC4=O)N3CCCS3(=O)=O)cn2)ncc1C#N` [Example 66, (R)-6-(4-(((2-(1,1-dioxidoisothiazolidin-2-yl)-2-(4-methyl-1-oxo-1,3-dihydroisobenzofuran-5-yl)ethyl)amino)methyl)-1H-pyrazol-1-yl)-4-methylnicotinonitrile], 260 nM.
The same measure for `Cc1c(C(O)CNCc2ccc3c(cnn3-c3ccc(F)cc3)c2)ccc2c1COC2=O` (single isomer, unassigned) [Example 16-I, 5-(2-(((1-(4-fluorophenyl)-1H-indazol-5-yl)methyl)amino)-1-hydroxyethyl)-4-methylisobenzofuran-1(3H)-one]: 480 nM; for `Cc1cc(-n2cc(CNC[C@H](O)c3ccc4c(c3C)COC4=O)c3ncccc32)ncc1C#N` [Example 168, (R)-6-(3-(((2-hydroxy-2-(4-methyl-1-oxo-1,3-dihydroisobenzofuran-5-yl)ethyl)amino)methyl)-1H-pyrrolo[3,2-b]pyridin-1-yl)-4-methylnicotinonitrile]: 120 nM; for `Cc1cc(-n2cc(CNC[C@@H](c3ccc4c(c3C)COC4=O)N(C)S(C)(=O)=O)cn2)ncc1C#N` [Example 65, (R)-N-(2-(((1-(5-cyano-4-methylpyridin-2-yl)-1H-pyrazol-4-yl)methyl)amino)-1-(4-methyl-1-oxo-1,3-dihydroisobenzofuran-5-yl)ethyl)-N-methylmethanesulfonamide]: 38 nM.
For `Cc1c([C@@H](O)CNCc2cnn(-c3ccc4oc(=O)n(C)c4n3)c2)ccc2c1COC2=O` [Example 145, (R)-5-(4-(((2-hydroxy-2-(4-methyl-1-oxo-1,3-dihydroisobenzofuran-5-yl)ethyl)amino)methyl)-1H-pyrazol-1-yl)-3-methyloxazolo[4,5-b]pyridin-2(3H)-one], the IC50 was found to be 130 nM.
With `Cc1c([C@@H](O)CNCc2cnn(-c3cnccn3)c2)ccc2c1COC2=O` [Example 165, (R)-5-(1-hydroxy-2-(((1-(pyrazin-2-yl)-1H-pyrazol-4-yl)methyl)amino)ethyl)-4-methylisobenzofuran-1(3H)-one], the IC50 turned out to be 470 nM.
Consider `Cc1c(C(O)CN(C)Cc2ccc(-c3ccc(C#N)c(F)c3)cc2)ccc2c1COC2=O` (single isomer, unassigned) [Example 27-II, 3-fluoro-4′-(((2-hydroxy-2-(4-methyl-1-oxo-1,3-dihydroisobenzofuran-5-yl)ethyl)(methyl)amino)methyl)-[1,1′-biphenyl]-4-carbonitrile], for which the IC50 was 240 nM.
Under `Cc1c(C(O)CN(C)Cc2cnc(-n3ncc4c(C#N)cccc43)nc2)ccc2c1COC2=O` (single isomer, unassigned) [Example 18-I, 1-(5-(((2-hydroxy-2-(4-methyl-1-oxo-1,3-dihydroisobenzofuran-5-yl)ethyl)(methyl)amino)methyl)pyrimidin-2-yl)-1H-indazole-4-carbonitrile] stands 230 nM.
As to `Cc1c([C@@H](O)CNCc2ccc(-n3cc(C(N)=O)cn3)nc2)ccc2c1COC2=O` [Example 154, (R)-1-(5-(((2-hydroxy-2-(4-methyl-1-oxo-1,3-dihydroisobenzofuran-5-yl)ethyl)amino)methyl)pyridin-2-yl)-1H-pyrazole-4-carboxamide], the IC50 worked out at 1000 nM.
`CN(Cc1ccc(-c2ccc(C#N)c(F)c2)nc1)CC(O)c1ccc2oc(=O)n(C)c2c1` (single isomer, unassigned) [Example 24-II, 2-fluoro-4-(5-(((2-hydroxy-2-(3-methyl-2-oxo-2,3-dihydrobenzo[d]oxazol-5-yl)ethyl)(methyl)amino)methyl)pyridin-2-yl)benzonitrile]: the IC50 amounted to 2400 nM.
Under `Cc1c([C@@H](O)CNCc2c[nH]c(-c3ccc4oc(=O)n(C)c4c3)n2)ccc2c1COC2=O` [Example 126, (R)-5-(4-(((2-hydroxy-2-(4-methyl-1-oxo-1,3-dihydroisobenzofuran-5-yl)ethyl)amino)methyl)-1H-imidazol-2-yl)-3-methylbenzo[d]oxazol-2(3H)-one] stands 580 nM; under `Cc1cc(-n2ncc(C(C)NC[C@H](O)c3ccc4c(c3C)COC4=O)n2)ncc1C#N` (single isomer, unassigned) [Example 59], 540 nM; under `Cc1c(C(O)CN(C)Cc2ccc(-c3ccc4oc(=O)n(C)c4c3)nc2)ccc2c1COC2=O` (single isomer, unassigned) [Example 1-II, 5-(5-(((2-hydroxy-2-(4-methyl-1-oxo-1,3-dihydroisobenzofuran-5-yl)ethyl)(methyl)amino)methyl)pyridin-2-yl)-3-methylbenzo[d]oxazol-2(3H)-one], 830 nM.
Turning to `Cc1c([C@@H](O)CNCc2ccc(-c3cnn(C)c3)nc2)ccc2c1COC2=O` [Example 124, (R)-5-(1-hydroxy-2-(((6-(1-methyl-1H-pyrazol-4-yl)pyridin-3-y)methyl)amino)ethyl)-4-methylisobenzofuran-1(3H)-one], the IC50 worked out at 260 nM.
`Cc1cc(-n2cc(CNC[C@@H](c3ccc4c(c3C)COC4=O)N(C)C)cn2)ncc1C#N` [Example 174, (R)-6-(4-(((2-(dimethylamino)-2-(4-methyl-1-oxo-1,3-dihydroisobenzofuran-5-yl)ethyl)amino)methyl)-1H-pyrazol-1-yl)-4-methylnicotinonitrile]: the IC50 was 11600 nM.
The same measure for `Cc1ncn(-c2ncc(CNC[C@H](O)c3ccc4c(c3C)COC4=O)cn2)n1` [Example 123, (R)-5-(1-hydroxy-2-(((2-(3-methyl-1H-1,2,4-ttiazol-1-yl)pyrimidin-5-yl)methyl)amino)ethyl)-4-methylisobenzofuran-1(3H)-one]: 210 nM; for `Cc1c([C@@H](O)CNCc2cnn(-c3cc(OC(C)C)c(C#N)cn3)c2)ccc2c1COC2=O` [Example 157, (R)-6-(4-(((2-hydroxy-2-(4-methyl-1-oxo-1,3-dihydroisobenzofuran-5-yl)ethyl)amino)methyl)-1H-pyrazol-1-yl)-4-isopropoxynicotinonitrile]: 31 nM; for `CNC(=O)O[C@@H](CNCc1cnn(-c2cc(C)c(C#N)cn2)c1)c1ccc2c(c1C)COC2=O` [Example 144, (R)-2-(((1-(5-cyano-4-methylpyridin-2-yl)-1H-pyrazol-4-yl)methyl)amino)-1-(4-methyl-1-oxo-1,3-dihydroisobenzofuran-5-yl)ethyl methylcarbamate]: 140 nM.

What is called IC50 is the concentration that gives 50% inhibition.
